# Experimental data published in paper PMC7349874, “High Content Screening Using New U2OS Reporter Cell Models Identifies Harmol Hydrochloride as a Selective and Competitive Antagonist of the Androgen Receptor” (Cells, 2020).
# Counter-ions that a name gives are not always drawn.
# What was measured:
# [1] = test system: DU145 cells; assay: Spheroid growth (CellTiter-Glo), DU145; format: cell-based, human; settings: 7 days, AR negative cells
# [2] = biological target: T1, glucocorticoid receptor (GR) (Homo sapiens, UniProt P04150); assay: Transactivation assay in HMLN GR cells; format: cell-based; settings: 16 h, antagonism in the presence of 5 nM dexamethasone
# T1 construct: expressed in transfected cells
# T1 sequence (P04150 1-777): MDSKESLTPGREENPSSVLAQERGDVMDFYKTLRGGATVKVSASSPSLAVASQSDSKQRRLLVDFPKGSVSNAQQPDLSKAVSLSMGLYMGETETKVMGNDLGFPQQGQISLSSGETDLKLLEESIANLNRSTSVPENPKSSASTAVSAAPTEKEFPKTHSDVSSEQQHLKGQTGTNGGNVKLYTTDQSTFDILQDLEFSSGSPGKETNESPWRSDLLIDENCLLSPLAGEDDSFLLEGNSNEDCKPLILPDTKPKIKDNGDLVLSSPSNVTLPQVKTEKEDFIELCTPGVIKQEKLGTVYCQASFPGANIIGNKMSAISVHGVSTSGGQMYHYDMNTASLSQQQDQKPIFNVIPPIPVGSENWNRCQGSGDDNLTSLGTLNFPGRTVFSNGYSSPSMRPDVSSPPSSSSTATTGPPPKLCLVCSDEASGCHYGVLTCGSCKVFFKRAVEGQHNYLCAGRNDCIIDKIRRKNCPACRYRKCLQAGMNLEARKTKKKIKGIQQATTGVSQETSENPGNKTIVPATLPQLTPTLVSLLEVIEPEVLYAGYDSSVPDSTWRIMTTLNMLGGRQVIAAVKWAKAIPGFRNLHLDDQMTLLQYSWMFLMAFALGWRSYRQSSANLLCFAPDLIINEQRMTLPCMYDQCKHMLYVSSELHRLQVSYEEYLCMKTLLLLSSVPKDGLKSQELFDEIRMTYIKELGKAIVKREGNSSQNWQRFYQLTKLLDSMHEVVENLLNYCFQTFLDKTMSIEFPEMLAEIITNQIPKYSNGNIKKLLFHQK
# Description: (§1) HG5LN MR and HG5LN PXR luciferase reporter cell lines were obtained by stable expression of individual ligand binding domains fused to GAL4 DNA binding domain in HG5LN (HeLa GAL4REx5-luciferase) cells, as previously described. HELN PR cells were obtained by stably expressing PR with the ERα DNA binding domain in HELN (HeLa ERE-luciferase) cells and HMLN GR cells were obtained by stable co-transfection of HeLa cells with a plasmid encoding for a glucocorticoid responsive gene (MMTV-Luc-SV-Neo) and a glucocorticoid receptor expressing plasmid, as previously described.
# (§2) Agonistic activities were evaluated in HMLN GR, HELN PR, HG5LN MR, and HG5LN PXR cells, using dexamethasone 100 nM, R5020 100 nM, aldosterone 100 nM, and SR12813 3 μM as a positive control, respectively. […] RU486 was used as a control antagonist for GR and PR, and spironolactone for MR.
# (§3) HMLN glucocorticoid receptor (GR), HG5LN mineralocorticoid receptor (MR), HELN progesterone receptor (PR) and HG5LN PXR cells were used to evaluate the antagonistic effect of the tested compounds on (A) the glucocorticoid receptor (GR), (B) the mineralocorticoid receptor (MR), (C) the progesterone receptor (PR) and (D) the agonistic activity towards the pregnane X receptor (PXR). […]
# [3] = biological target: T2, progesterone receptor (PR) (Homo sapiens, UniProt P06401); assay: Transactivation assay in HELN PR cells; format: cell-based; settings: 16 h, antagonism in the presence of 1 nM R5020
# T2 sequence (P06401 679-933 limits assumed): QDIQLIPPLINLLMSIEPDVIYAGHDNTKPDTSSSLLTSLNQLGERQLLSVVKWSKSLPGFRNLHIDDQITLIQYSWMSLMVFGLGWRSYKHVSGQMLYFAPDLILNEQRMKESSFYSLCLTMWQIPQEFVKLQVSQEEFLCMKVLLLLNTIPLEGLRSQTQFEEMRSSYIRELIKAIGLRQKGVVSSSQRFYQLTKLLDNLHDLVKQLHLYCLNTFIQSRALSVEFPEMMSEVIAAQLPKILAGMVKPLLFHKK
# Description: as §1, §2, §3
# [4] = biological target: T3, mineralocorticoid receptor (MR) (Homo sapiens, UniProt P08235); assay: Transactivation assay in HG5LN MR cells; format: cell-based; settings: 16 h, 1 nM aldosterone, highest concentrations used (>1 µM)
# T3 construct: expressed in transfected cells
# T3 sequence (P08235 726-964 limits assumed): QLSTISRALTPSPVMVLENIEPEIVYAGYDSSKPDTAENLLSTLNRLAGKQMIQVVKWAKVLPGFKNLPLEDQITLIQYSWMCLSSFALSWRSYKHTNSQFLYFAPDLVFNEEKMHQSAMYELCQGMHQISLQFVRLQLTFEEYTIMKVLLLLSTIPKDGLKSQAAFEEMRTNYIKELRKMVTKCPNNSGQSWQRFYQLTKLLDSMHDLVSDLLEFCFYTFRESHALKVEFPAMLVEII
# Description: as §1, §2, §3
# [5] = design: method as in PMID 19363158; settings: cited from earlier work
# [6] = test system: AR target genes TMPRSS2, FKBP5, PSA; assay: RT-qPCR of AR target genes in VCaP cells; settings: 3 µM, 24 h, 1 nM R1881
# Description: (§4) LNCaP and VCaP cells were seeded in 6-well plates (10^6 and 2 × 10^6 cells per well, respectively) and, 48 h later, complete medium was replaced by charcoal-stripped medium with 5% FBS. Cells were then treated for 24 h with the tested compounds, and RNA extraction was performed using the Quick RNA Miniprep kit (Zymo-Research, Irvine, CA, USA), according to the manufacturer’s protocol. Reverse transcription was performed with 0.5 µg total RNA using the SuperScript III reverse transcriptase kit (ThermoFisher, Waltham, MA, USA), according to the manufacturer’s protocol, in a final volume of 20 µL. The levels of genes transcripts were measured by real time PCR using a LightCycler 480 system (Roche Life Science, Penzberg, Germany) in the presence of SYBRGreen (SYBR® Premix Ex Taq^tm) and the following primers: FKBP5, sense 5′-[sequence]-3′; antisense 5′-[sequence]-3′; PSA, sense 5′-[sequence]-3′; antisense 5′-[sequence]-3′; TMPRSS2, sense 5′-[sequence]-3′, antisense 5′-[sequence]-3′; GR, sense 5′-[sequence]-3′, antisense 5′-[sequence]-3′; HPRT, sense 5′-[sequence]-3′; antisense 5′-[sequence]-3′; GAPDH, sense 5′-[sequence]-3′; antisense 5′-[sequence]-3′. Expression levels were evaluated with the ΔΔCt method and were normalized to GAPDH. Results are expressed as mRNA expression, relative to control (untreated cells), and are the mean ± SEM of 3 independent experiments.
# [7] = test system: AR target genes TMPRSS2, FKBP5, PSA; assay: RT-qPCR of AR target genes in LNCaP cells; settings: 3 µM, 24 h, 1 nM R1881
# Description: as §4
compound,measurement,setting,value
"Cc1nccc2c1[nH]c1cc(O)ccc12 [harmol hydrochloride, Harmol hydrochloride monohydrate]",Growth of DU145 spheroids,[1],no effect
same,Activity towards GR,[2],did not show any significant activity
same,Activity towards PR,[3],did not show any significant activity
same,Antagonistic activity towards MR,[4],small antagonistic activity
same,Metabolism when administered in mice,[5],rapidly metabolized
same,Expression of the AR non-target gene HPRT,[6],unaffected
same,"R1881-mediated expression of AR target genes TMPRSS2, FKBP5, PSA",[6],significant decrease
same,Expression of the AR non-target gene HPRT,[7],unaffected
same,"R1881-mediated expression of AR target genes TMPRSS2, FKBP5, PSA",[7],significant decrease
